{"source": "patent US9486472B2", "about": "“Methods for modulating neuronal responses” (UNIVERSITY OF BRITISH COLUMBIA CANADA, priority 2003, dated 2016)", "key": {"[1]": {"test_system": "Sprague-Dawley rats", "experiment": "Transient focal ischemia model (MCA occlusion), TUNEL staining and neurological exam", "assay_type": "in vivo, rat", "details": "10 min prior to MCA occlusion; 3 nmoles/g", "procedure": "The procedure was performed essentially as described previously (70). Briefly, adult male Sprague-Dawley rats between 280 and 320 g (20 h fasted weight) were anesthetized with an inhaled mixture of 4% isofluorane, in 30% oxygen balanced nitrous oxide, and maintained on 1.5% isofluorane. Bronchial secretions were minimized by administering 0.5 mg/kg of atropine intraperitoneally. […] The experimenter was blinded to the identity of the treatment groups for all surgeries and down-stream experiments. Under a dissection microscope, the common carotid artery (CCA), external carotid artery (ECA), and internal carotid artery (ICA) were exposed and dissected. […] Rectal temperature, and blood pressure measured with a tail cuff were measured before treatment, 15 min post injection, 50 min post injection, and 15 min post MCA occlusion. The plasma pH, O2, and CO2 were measured with a Rapidlab™ 348 blood gas analyzer (Bayer Diagnostics) in some animals to ensure that the gas flow rates used were appropriate and yielded reproducible blood gases. […]\nAt day 1 post MCAo rats were anesthetized with 1.5 mL of 25% urethane and were perfused with 100 mL of 0.9% saline followed by 120 mLs of 4% paraformaldehyde in PBS. […] The slices were scored for number of cells that stained positive for TMR-TUNEL per field of view at 10× magnification. […]"}, "[2]": {"experiment": "Dose tolerance to serial doses, vital parameters monitored", "assay_type": "in vivo, Sprague-Dawley rats", "procedure": "FIG. 15. Dose tolerance curve to serial doses of Tat-GluR2-3Y. Two adult male Sprague-Dawley rats were given serial doses of Tat-GluR2-3Y and the basic vital parameters were monitored.\nIn order to determine the maximum dose that could be administered without adverse reaction, two male Sprague Dawley rats were injected with serial doses of Tat-GluR2-3Y ranging from 0.5 nmoles/g to 30 nmoles/g and basic vital parameters were monitored. […] Assuming complete dispersion of the peptide in the animal, this dose corresponds roughly to a concentration of 3 μM."}, "[3]": {"test_system": "rats", "details": "IV 60 min prior to test session; versus saline", "procedure": "A. Rats maintained on a restricted feeding schedule were trained to lever-press for food pellets (45 mg) on a fixed-ratio 2 (FR2) schedule during 2-hour test sessions. Rats received IV injections of saline, GluR2-3A, or GluR2-3Y, in a counterbalanced order, 60 min prior to the test session. […] B. Rats were first trained to self-administer d-amphetamine (0.2 mg/infusion) via a jugular catheter on an FR2 schedule of reinforcement. Once responding in the 3 hour test sessions had stabilized, the rats were then trained on a Progressive Ratio Schedule in which successively more responses were required to obtain each successive reinforcement. […] Once stable Break point values were established, rats received IV injections of saline, GluR2-3A, or GluR2-3Y, in a counterbalanced order, 60 min prior to the test session."}, "[4]": {"test_system": "rats", "experiment": "Behavioural sensitization to d-amphetamine (stereotypy scores)", "assay_type": "in vivo, rat", "details": "one hour intravenous pre-treatment", "procedure": "To induces behaviour sensitization to addictive drugs that lead to substance abuse, four separate groups of adult rats were given repetitive injections of damphetamine (2 mg/kg, intraperitoneally (IP)) or saline, every other day for a total of 10 injections. On days 1, 5 and 10 of the injection regimen, the rats were placed in 2-level locomotor boxes for 30 min before the amphetamine injection to habituate to the boxes, and for an additional 2 hours following the injection, and stereotypy scores (drug-induced behaviours) were assessed at 1 minute intervals every 10 minutes for the duration of the 2 hour session. After the 10th injection of d-amphetamine, the rats were given 21 days off, and chronically indwelling catheters were implanted into the jugular vein under anaesthesia.\nOn day 21, the rats were pretreated with 1.5 nM/grTat-GluR2-3Y, or Tat-GluR2-3A or saline by either IV injection, or intracranial microinjection into the nucleus accumbens (Nac), and returned to their home cages for 60 min. The rats were then placed in the locomotor boxes (observation chambers) for 30 min and then treated with a challenge dose of d-amphetamine (2 mg/kg, IP). Stereotypy scores were then assessed as described (FIG. 12A), Points represent mean stereotypy scores (±S.E.M) for groups of rats over the 2 hour test session. […]"}, "[5]": {"test_system": "AMPAR", "experiment": "Quantification of AMPAR endocytosis in response to NMDA treatment (cellular ELISA), cortical neurons", "assay_type": "cell-based, Wistar rat", "details": "50 μM NMDA + 10 μM glycine 30 min; peptide 1 μM, 60 min pretreatment; control 69%", "procedure": "The cortex was dissected from 18 days in utero Wistar embryos and was treated with trypsin-EDTA for 15 min at 37° C. The cells were then washed 3 times and triturated to a single cell suspension. The neurons with glia were then seeded at a density of ˜2.5×10^5 neurons/well in 12 well tissue culture plates coated with poly-D lysine. The cells were then cultured for 24-48 h in plating media (Gibco Neurobasal™, 1% FBS, 2% B-27 supplement, 0.5 mM […], and 25 μM glutamic acid), after which the cells were treated with Neurobasal™ maintenance media (NMM: Gibco Neurobasal™ Media+0.5 mM […], 2% B-27 supplement) with 10 μM 5-Fluoro-2′-deoxyuridine (FDU) to enrich the culture for neurons (−85%). After 24 h-48 h culture in FDU, the cells were maintained on NMM changed every 4 days.\nUsing cellular ELISA, the amount of intracellular versus extracellular AMPAR expression was measured allowing quantification of AMPAR endocytosis in response to NMDA insult. DIV 12-13 neurons were washed once with room temperature ECS. […] The absorbance at 492 nm was read using a μQuant plate reader (Bio-Tek Instruments Inc.). The data were analyzed by first subtracting the absorbance values for the no-primary controls from the other samples. The percentage AMPAR surface expression was then expressed as a ratio of the non-permeabilized samples to the permeabilized samples. […]"}}, "note": "No end group written: not given here."}
{"compound": "YGRKKRRQRRRYKEGYNVYGIE [Tat-GluR2-3Y, YGRKKRRQRRR-YKEGYNVYGIE]", "values": [{"measurement": "mean arterial blood pressure (MABP) versus saline", "setting": "[1]", "result": "significantly lower mean arterial blood pressure"}, {"measurement": "behaviour after revival from the dose response curve", "setting": "[2]; both animals", "result": "showed no signs of mental depression or other behavioural changes"}, {"measurement": "dose up to which the drug was tolerated", "setting": "[2]; serial doses 0.5 to 30 nmoles/g, above: large decline in blood pressure, increase in breathing rate", "result": "~12", "unit": "nmol/g"}, {"measurement": "doses evoking little response in the vital parameters monitored", "setting": "[2]; serial doses, anesthetized rats", "result": "up to 6 nmoles/g"}, {"measurement": "Break Point measures for drug-reward", "setting": "[3]", "result": "no significant differences in the Break Point measures for drug-reward"}, {"measurement": "total number of responses for food reward", "setting": "[3]", "result": "no significant differences in total number of responses for food reward"}, {"measurement": "side effects", "setting": "[4]", "result": "without any notable side effects"}]}
{"compound": "CN[C@H](CC(=O)O)C(=O)O", "note": "[NMDA, N-methyl-D-aspartate]", "values": [{"measurement": "AMPAR surface expression", "setting": "[5]", "result": 55, "unit": "%"}]}
